How the values were obtained:
A549 = test: MTT assay, antiproliferative activity; type: cell-based; settings: Homo sapiens, 48 h drug exposure, mean ± SD
Description: (§1) Human cancer cell lines BEL-7402, A549, MCF-7, PC-3M, and normal renal cell line HEK293 were bought from the BeNa Culture Collection (Beijing, China). BEL7402, A549, and PC-3M were cultured in RPMI 1640 medium (Gibco, Carlsbad, CA, USA). MCF-7 and HEK293 were cultured in the DMEM medium (Gibco, CA, USA). The medium was supplemented with 10% fetal bovine serum (FBS) (CLARK, San Diego, CA, USA), 100 U/mL penicillin, and 0.1 mg/mL streptomycin (Beyotime, Nanjing, China). The cells were incubated in 5% CO2 at 37 °C.
(§2) The MTT assay was employed to assess the inhibitory effect of each compound on cell growth. A549, PC-3M, MCF-7, BEL-7402, and HEK293 cells in the logarithmic growth phase were seeded in 96-well culture plates at an inoculum density of 5 × 10^4 cells/mL. After overnight incubation at 37 °C in a 5% CO2 atmosphere, the cells fully adhered to the surface. Different concentrations of sample solutions (0, 3.125, 6.25, 12.5, 25, 50, 100 μmol/L) were added (100 μL) to treat the cells. After 48 h of drug treatment, 10 μL of a 5 mg/mL MTT solution was added to each well and incubated for 4 h at 37 °C. The supernatant was then discarded, and 150 μL of DMSO was added to dissolve the formazan. The mixture was shaken at room temperature for 15 min, and the absorbance (D) value was measured at 490 nm using a Microplate Reader (HBS-ScanY, Nanjing, China). The drug IC50 values were calculated using GraphPad Prism (v10.0). Each cell viability experiment was performed in triplicate.

BEL-7402 = test: MTT assay, antiproliferative activity; type: cell-based; settings: Homo sapiens, 48 h drug exposure, mean ± SD
Description: as §1, §2

MCF-7 = test: MTT assay, antiproliferative activity; type: cell-based; settings: Homo sapiens, MCF7, 48 h drug exposure, mean ± SD
Description: as §1, §2

PC-3M = test: MTT assay, antiproliferative activity; type: cell-based; settings: Homo sapiens, 48 h drug exposure, mean ± SD
Description: as §1, §2

BEL-7402 cells [1] = test: Annexin V-FITC/PI flow cytometry apoptosis assay; type: cell-based, human
Description: BEL-7402 cells in the logarithmic growth phase were prepared into a cell suspension at a concentration of 2.5 × 10^5 cells/mL and seeded into 6-well culture plates with 2 mL per well. After overnight incubation, different concentrations of Mito-ICT-4 (0.625, 1.25, 2.5 μmol/L) were added to the cells, and a control group was included. After 48 h of culture, the supernatant was transferred to a centrifuge tube. The cells were then digested with pancreatin (without EDTA) (Beyotime, Nanjing, China) at room temperature and centrifuged at 4 °C for 5 min (10,000 rpm). The supernatant was discarded. Then, 300 μL of 1× buffer was added to each group, and the mixture was well mixed. The mixture was then incubated with 5 μL of Annexin V-FITC (Solarbio, Beijing, China) solution at room temperature for 5 min, protected from light, followed by the addition of 5 μL of PI solution. Apoptosis was detected using flow cytometry (BD Biosciences, Franklin Lakes, NJ, USA).

BEL-7402 cells [2] = test: DAPI staining, apoptosis; type: cell-based, human; settings: 0.625, 1.25, 2.5 μmol/L, 48 h
Description: BEL-7402 cells in the logarithmic growth phase were seeded in 12-well plates at a density of 1 × 10^5 cells/well. After overnight incubation, the cells were treated with different concentrations of Mito-ICT-4 (0.625, 1.25, and 2.5 μmol/L), and a control group was included. After 48 h of incubation, the cells were fixed with 4% histocyte fixative (Solarbio, Beijing, China) at room temperature for 15 min. After fixation, 500 μL of DAPI staining solution (Solarbio, Beijing, China) was added to each well and incubated at 37 °C for 20 min. The cells were then observed under an inverted fluorescence microscope (EVOS M5000, Waltham, MA, USA).

BEL-7402 cells [3] = test: JC-1 staining, mitochondrial membrane potential; type: cell-based, human; settings: JC-1, 0.625, 1.25, 2.5 μmol/L, 48 h
Description: Drug grouping and administration were performed as described in Section 2.5. After 48 h of incubation, 500 μL of JC-1 fluorescent dye (Beyotime, Nanjing, China) was added to each well. The cells were stained at 37 °C for 30 min, after which the dye was discarded. The cells were then washed three times with PBS and observed under an inverted fluorescence microscope.

Cl-caspase-3 = test: Western blot; type: cell-based, human; settings: 48 h
Description: (§3) Drug grouping and administration were performed as described in Section 2.6. After 48 h of incubation, the supernatant was discarded, and the cells were washed twice with pre-cooled PBS. A volume of 150 µL of RIPA lysis buffer (Solarbio, Beijing, China) was added and incubated on ice. After sufficient lysis, the supernatant was centrifuged, and the protein concentration was determined using a BCA kit (Thermo, Waltham, MA, USA). The SDS-PAGE gel system was chosen based on the molecular weight of the target proteins to perform electrophoresis. After electrophoresis, the processed samples were transferred to a membrane and incubated at room temperature for 2 h to block non-specific binding. After membrane transfer, the membranes were incubated with primary antibodies against CypD (Proteintech Group, Wuhan, China), SIRT3 (Abcam, Cambridge, UK), P-MKK6 (Bioss, Beijing, China), P-P38 (Bioss, Beijing, China), DDIT3 (Bioss, Beijing, China), Cleaved-caspase-3 (Abcam, Cambridge, UK), and β-actin (ZSGB-BIO, Beijing, China) (1:1000) at 4 °C overnight. After primary antibody binding, the membranes were incubated with the corresponding secondary antibody (ZSGB-BIO, Beijing, China) (1:3000) at room temperature for 1 h. Immunoblot bands were detected using an enhanced chemiluminescence system (Analytik Jena AG, Jena, Germany). The bands were analyzed using ImageJ (v1.8.0) software.

CypD = test: Western blot; type: cell-based, human; settings: 48 h
Description: as §3

DDIT3 = test: Western blot; type: cell-based, human; settings: vs blank control, p < 0.001
Description: as §3

P-MKK6 = test: Western blot; type: cell-based, human; settings: with increasing concentrations vs blank control, p < 0.001
Description: as §3

P-P38 = test: Western blot; type: cell-based, human; settings: with increasing concentrations vs blank control, p < 0.001
Description: as §3

SIRT3 = test: Western blot; type: cell-based, human; settings: 48 h
Description: as §3

[4] = low-concentration group vs control, p < 0.01

- IC50 (A549): 5.15 ± 0.59 µM
- IC50 (BEL-7402): 0.73 ± 0.06 µM
- IC50 (MCF-7): 10.8 ± 1.2 µM
- IC50 (PC-3M): 11.3 ± 1.55 µM
Compound: COc1ccc(-c2oc3c(CC=C(C)C)c(OC(=O)CCCCCCCCCC[P+](c4ccccc4)(c4ccccc4)c4ccccc4)cc(O)c3c(=O)c2O)cc1 [Mito-ICT-4]
- cells undergoing early apoptosis (BEL-7402 cells [1]; BEL-7402 cells treated with Mito-ICT-4): 27.39%
- apoptosis-inducing ability relative to ICT (BEL-7402 cells [1]; BEL-7402 cells, sentence cites [24]): approximately 29.8 times
- total apoptosis rate (BEL-7402 cells [1]; high-dose group (2.5 μmol/L), 48 h): 27.39%
- nuclear morphology, DAPI staining (BEL-7402 cells [2]): nuclei exhibited crumpling and cleavage
- mitochondrial membrane potential (BEL-7402 cells [3]): reduction
- expression of Cl-caspase-3 (Cl-caspase-3; high-concentration group vs control, p < 0.001): significantly higher
- expression of Cl-caspase-3 (Cl-caspase-3; [4]): elevated
- CypD protein expression (CypD; [4]): elevated
- CypD protein expression (CypD; medium and high-concentration groups vs control, p < 0.001): significantly higher
- expression level of DDIT3 (DDIT3): increased significantly
- expression level of P-MKK6 (P-MKK6): decreased significantly
- expression level of P-P38 (P-P38): decreased significantly
- SIRT3 expression levels (SIRT3; [4]): decreased
- SIRT3 expression levels (SIRT3; medium- and high-concentration groups vs control, p < 0.001): significantly reduced
